Assay: Purity and stability test (content by HPLC after sealed storage)
Assay type: physicochemical
Settings: for Content of the intial sample: HPLC content before storage; for Content of the sample stored at 25° C. for 14 days: sealed storage at 25° C. for 14 days, content by HPLC
Description: The purity was detected by high performance liquid chromatography (HPLC) method. HPLC method was performed according to the method reported in Journal of Industrial Microbiology & Biotechnology (2001), 26, 216-221; the normal phase HPLC is employed:
silica gel column: 4.6 mm*250 mm;
Mobile phase: ethyl acetate:methanol:water=84:9:7 (V/V/V);
Detection wavelength: 278 nm.
The purity and stability of samples prepared in the comparative example and examples 1-4 were compared. The method is described as follows:
The samples from comparative-example, example 1, example 2, example 3 and example 4 were obtained separately and kept at 25° C. for 14 days in sealed storage. And then the contents of the samples were tested by HPLC.

Compound | Content of the intial sample [%] | Content of the sample stored at 25° C. for 14 days [%] | stability compared with crystal A and amorphous powder (25° C., 14 days, sealed storage)
CCC(C)CC(C)CCCCCCCCC(=O)NC1CC(O)[C@@H](O)NC(=O)[C@H]2[C@@H](O)CCN2C(=O)[C@H](C(O)CC(N)=O)NC(=O)C(C(O)C(O)c2ccc(O)cc2)NC(=O)[C@@H]2C[C@@H](O)CN2C(=O)[C@H](C(C)O)NC1=O (some centres unmarked) [Example 2] | 99.8 | 99.6 | 
CCC(C)CC(C)CCCCCCCCC(=O)NC1CC(O)[C@@H](O)NC(=O)[C@H]2[C@@H](O)CCN2C(=O)[C@H](C(O)CC(N)=O)NC(=O)C(C(O)C(O)c2ccc(O)cc2)NC(=O)[C@@H]2C[C@@H](O)CN2C(=O)[C@H](C(C)O)NC1=O (some centres unmarked) [Comparative example, reference compound] | 97.7 | 95.6 | 
CCC(C)CC(C)CCCCCCCCC(=O)NC1CC(O)[C@@H](O)NC(=O)[C@H]2[C@@H](O)CCN2C(=O)[C@H](C(O)CC(N)=O)NC(=O)C(C(O)C(O)c2ccc(O)cc2)NC(=O)[C@@H]2C[C@@H](O)CN2C(=O)[C@H](C(C)O)NC1=O (some centres unmarked) [Example 1] | 96.1 | 93.5 | 

More lines, now with the values ahead:

Content of the intial sample [%] | Content of the sample stored at 25° C. for 14 days [%] | stability compared with crystal A and amorphous powder (25° C., 14 days, sealed storage) | Compound
99.8 | 99.5 |  | CCC(C)CC(C)CCCCCCCCC(=O)NC1CC(O)[C@@H](O)NC(=O)[C@H]2[C@@H](O)CCN2C(=O)[C@H](C(O)CC(N)=O)NC(=O)C(C(O)C(O)c2ccc(O)cc2)NC(=O)[C@@H]2C[C@@H](O)CN2C(=O)[C@H](C(C)O)NC1=O (some centres unmarked) [Example 3]
99.8 | 99.5 |  | CCC(C)CC(C)CCCCCCCCC(=O)NC1CC(O)[C@@H](O)NC(=O)[C@H]2[C@@H](O)CCN2C(=O)[C@H](C(O)CC(N)=O)NC(=O)C(C(O)C(O)c2ccc(O)cc2)NC(=O)[C@@H]2C[C@@H](O)CN2C(=O)[C@H](C(C)O)NC1=O (some centres unmarked) [Example 4]
 |  | better stability | CCC(C)CC(C)CCCCCCCCC(=O)NC1CC(O)[C@@H](O)NC(=O)[C@H]2[C@@H](O)CCN2C(=O)[C@H](C(O)CC(N)=O)NC(=O)C(C(O)C(O)c2ccc(O)cc2)NC(=O)[C@@H]2C[C@@H](O)CN2C(=O)[C@H](C(C)O)NC1=O (some centres unmarked) [crystal B of the compound of formula I]
